Data taken from patent publication US10709718B2, “Inhibitors of diacylglycerol O-acyltransferase 1 (DGAT-1) and uses thereof” (Metabasis Therapeutics, Inc., priority 2009, dated 2020).
Where two headings read alike, the source gives them in different places.

Tests used:
Sprague Dawley rats = experiment: In vivo assay for intestinal triglyceride export (serum TAG after olive oil gavage); design: species or system rat; details: oral administration, doses in the range of 0.1 to 30 mg/kg
Protocol: The following screen can be used to evaluate the effects of DGAT-1 inhibitors on the export of dietary TAGs from the intestine to the circulation in rodents (male Sprague Dawley rats or C57BL/6 mice).
Methods: Animals (housed 2/cage) are fasted overnight, and dosed (PO) the next day with vehicle (1% Tween-80) or test compound at doses ranging from 0.01 to 30 mg/kg, followed by an oral gavage of olive oil. Blood samples are taken at baseline and at appropriate intervals over the course of 4 hours. Serum TAG levels are determined using the Infinity triglyceride reagent per the manufacturer's instructions.

hDGAT1 = hDGAT1 (Homo sapiens (Human), UniProt O75907); experiment: Inhibition of human microsomal DGAT activity (14C-TAG formation, intestinal microsomes); format: biochemical
Protocol: The inhibition of DGAT-1 activity can be assessed in intestinal microsome preparations by monitoring the incorporation of radiolabeled fatty acyl-CoA into […].
Methods: Commercial microsomal preparations containing 60 ug of protein are incubated in assay buffer [20 uM 1,2-didecanloyl glycerol, 5 uM ^14C decanoyl-CoA, 5 mM MgCl2, 0.4% BSA, 0.1% dimethyl sulfoxide (DMSO), 50 mM HEPES-pH 7.5] in the presence of varying concentrations of inhibitors that are dispensed from 100% DMSO stock solutions. Final assay volumes are 200 uL. Reactions are carried out for 45 minutes in 96-well polystyrene microtiter plates at ambient temperature. Following the ambient temperature incubation, assay mixtures are applied to a 96-well filter plate (Catalog # MSHVN4510, Millipore Inc.; Billerica, Mass.) under vacuum. The filter plate is pre-equilibrated with 100 uL of 70% ethanol followed by 200 uL of assay buffer. […] De novo ^14C-TAG formed in the assay and trapped on the filters is quantified with use of a liquid scintillation counter (Model # LS6500 Beckman Coulter, Inc.; Fullerton, Calif.).

[1] = Plasma pharmacokinetics and oral bioavailability in rats; format: in vivo, rat; details: male Sprague Dawley rats, 5 mg/kg, LOQ 0.001 ug/mL
Protocol: Pharmacokinetic studies in rats are useful for the identification of DGAT-1 inhibitors that have low oral bioavailability and show low systemic exposure (i.e. low circulating levels in plasma).
Methods: Groups of male Sprague Dawley rats (200-250 g) (n=3/group) were administered either an IV bolus (1% Tween-80, pH adjusted to 7, vehicle) or an oral gavage (50% PEG-200 in 1% Tween-80 vehicle) of 5 mg/kg of each DGAT-1 inhibitor. Blood (EDTA) was collected by tail nick at 0.5, 1, 2, 4, 8, 10-12 and 24 hr post dose. Following centrifugation of the blood to obtain plasma, the samples were analyzed by LC-MS/MS method for active metabolite. The pharmacokinetic parameters were calculated by noncompartmental analysis of the plasma concentration-time profile of the active metabolite. The oral bioavailability was determined by dividing the dose-normalized plasma AUC value of the active metabolite following oral administration of the DGAT-1 inhibitor by the plasma AUC value of the active metabolite after IV bolus administration.

[2] = microsomal preparation, 14C decanoyl-CoA, 45 min, ambient temperature

hDGAT1, sequence (O75907 whole entry): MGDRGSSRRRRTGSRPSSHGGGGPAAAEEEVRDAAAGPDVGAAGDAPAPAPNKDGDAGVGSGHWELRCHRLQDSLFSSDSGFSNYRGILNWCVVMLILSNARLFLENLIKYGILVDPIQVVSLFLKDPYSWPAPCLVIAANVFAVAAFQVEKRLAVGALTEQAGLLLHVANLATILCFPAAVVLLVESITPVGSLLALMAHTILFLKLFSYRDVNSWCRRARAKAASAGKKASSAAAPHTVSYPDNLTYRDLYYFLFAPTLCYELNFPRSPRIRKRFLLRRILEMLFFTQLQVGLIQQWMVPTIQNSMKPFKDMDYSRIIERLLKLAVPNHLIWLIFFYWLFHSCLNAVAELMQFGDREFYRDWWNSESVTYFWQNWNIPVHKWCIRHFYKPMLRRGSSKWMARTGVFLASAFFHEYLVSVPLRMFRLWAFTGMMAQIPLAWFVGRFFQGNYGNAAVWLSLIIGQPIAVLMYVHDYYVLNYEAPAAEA

IC50 (hDGAT1; [2]) | Compound | other results
< 10 nM | CC1(C)Oc2ncnc(N)c2N=C1c1ccc([C@H]2CC[C@H](OP(=O)(O)O)CC2)cc1 [Compound 3] | –
< 10 nM | CP(=O)(O)C[C@H]1CC[C@H](c2ccc(NC(=O)c3nnc(Nc4ccc(F)c(F)c4)o3)cc2)CC1 [Compound 5] | AUC0-4h of serum TAGs (Sprague Dawley rats): reduced; Cmax [1]: 3 ng/mL
< 10 nM | CC1(C)Oc2ncnc(N)c2N=C1c1ccc(C2CCC(OP(=O)(O)OC3CCCC3)CC2)cc1 (stereo not shown) [Compound 10] | –
< 10 nM | CC1(C)Oc2ncnc(N)c2N=C1c1ccc(C2CCC(OP(=O)(O)Cc3ccccc3)CC2)cc1 (stereo not shown) [Compound 11] | –
< 10 nM | CC1(C)Oc2ncnc(N)c2N=C1c1ccc([C@H]2CC[C@H](OP(=O)(O)c3ccccc3)CC2)cc1 [Compound 14] | –
< 10 nM | CC1(C)Oc2ncnc(N)c2N=C1c1ccc([C@H]2CC[C@H](OP(=O)(O)Cc3ccc(C(=O)O)cc3)CC2)cc1 [Compound 17] | –
< 10 nM | CC1(C)Oc2ncnc(N)c2N=C1c1ccc([C@H]2CC[C@H](CP(=O)(O)c3ccccc3)CC2)cc1 [Compound 21] | –

The remaining lines, values behind:

Compound | IC50 (hDGAT1; [2]) | other results
CC1(C)Oc2ncnc(N)c2N=C1c1ccc([C@H]2CC[C@H](CP(C)(=O)O)CC2)cc1 [Compound 1] | < 10 nM | AUC0-4h of serum TAGs (Sprague Dawley rats): reduced; Cmax [1]: 9 ng/mL
CP(=O)(O)[C@@H]1CCC[C@H]1C(=O)c1ccc(-c2ccc(NC(=O)Nc3ccccc3)cc2)cc1 [Compound 2] | – | AUC0-4h of serum TAGs (Sprague Dawley rats): reduced; Cmax [1]: 5 ng/mL
CC(C)COP(=O)(O)O[C@H]1CC[C@H](c2ccc(C3=Nc4c(N)ncnc4OC3(C)C)cc2)CC1 [Compound 8] | < 10 nM | –
CCOP(=O)(O)OC1CCC(c2ccc(C3=Nc4c(N)ncnc4OC3(C)C)cc2)CC1 (stereo not shown) [Compound 9] | – | IC50 (hDGAT1): < 10 nM
CC1(C)Oc2ncnc(N)c2N=C1c1ccc([C@H]2CC[C@H](OP(=O)(O)c3cccs3)CC2)cc1 [Compound 19] | < 10 nM | –
CC1(C)Oc2ncnc(N)c2N=C1c1ccc([C@H]2CC[C@H](OP(=O)(O)c3ccsc3)CC2)cc1 [Compound 20] | < 10 nM | –
CC1(C)Oc2ncnc(N)c2N=C1c1ccc([C@H]2CC[C@H](CP(=O)(O)C3CC3)CC2)cc1 [Compound 23] | < 10 nM | –
